PubChem BioAssay AID248 (DTP/NCI, 2004)
Toxic doses and inconclusive results are not listed.

Tested on: L1210 leukemia ip in BDF1 mice, survival T/C
Assay: NCI In Vivo Anticancer Drug Screen. Data for tumor model L1210 Leukemia (intraperitoneal) in B6D2F1 (BDF1) mice
Details: endpoint: mean survival time, higher = longer survival
Outline: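 Ratio derived from survival: compound-dosed mice over vehicle-dosed mice, all bearing a transplantable tumor.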

[1] = dose: 100.0 mg/kg/injection, schedule: Q01DX001 (ip), vehicle: other
[2] = dose: 200.0 mg/kg/injection, schedule: Q01DX001 (ip), vehicle: other
[3] = dose: 100.0 mg/kg/injection, schedule: Q04DX003 (ip), vehicle: saline with Tween-80

**Q.** How did the T/C (dose: 10.0 mg/kg/injection, schedule: Q01DX009 (ip), vehicle: saline) turn out when `C#CCn1cnc2c(=S)nc[nH]c21` was run?
**A.** 104 % of control

**Q.** And the T/C (dose: 15.0 mg/kg/injection, schedule: Q04DX003 (ip), vehicle: saline)?
**A.** 103 % of control

**Q.** And the T/C (dose: 25.0 mg/kg/injection, schedule: Q01DX009 (ip), vehicle: saline)?
**A.** 114 % of control

**Q.** What about the T/C (dose: 30.0 mg/kg/injection, schedule: Q04DX003 (ip), vehicle: saline) of the same compound?
**A.** 111 % of control

**Q.** What about the T/C (dose: 52.0 mg/kg/injection, schedule: Q04DX003 (ip), vehicle: Klucel (hydroxypropylcellulose) (HPC)) of the same compound?
**A.** 110 % of control

**Q.** And the T/C (dose: 60.0 mg/kg/injection, schedule: Q04DX003 (ip), vehicle: saline)?
**A.** 111 % of control

**Q.** And the T/C (dose: 78.0 mg/kg/injection, schedule: Q04DX003 (ip), vehicle: Klucel (hydroxypropylcellulose) (HPC))?
**A.** 115 % of control

**Q.** And the T/C (dose: 90.0 mg/kg/injection, schedule: Q01DX009 (ip), vehicle: saline)?
**A.** 119 % of control

**Q.** And the T/C [1]?
**A.** 104 % of control

**Q.** What about the T/C (dose: 100.0 mg/kg/injection, schedule: Q04DX003 (ip), vehicle: Klucel (hydroxypropylcellulose) (HPC)) of the same compound?
**A.** 113 % of control

**Q.** What about the T/C (dose: 118.0 mg/kg/injection, schedule: Q04DX003 (ip), vehicle: Klucel (hydroxypropylcellulose) (HPC)) of the same compound?
**A.** 115 % of control

**Q.** What about the T/C (dose: 175.0 mg/kg/injection, schedule: Q01DX009 (ip), vehicle: saline) of the same compound?
**A.** 93 % of control

**Q.** What about the T/C (dose: 177.0 mg/kg/injection, schedule: Q01DX001 (ip), vehicle: Klucel (hydroxypropylcellulose) (HPC)) of the same compound?
**A.** 108 % of control

**Q.** And the T/C (dose: 177.0 mg/kg/injection, schedule: Q04DX003 (ip), vehicle: Klucel (hydroxypropylcellulose) (HPC))?
**A.** 155 % of control

**Q.** What about the T/C (dose: 177.0 mg/kg/injection, schedule: Q04DX003 (ip), vehicle: saline) of the same compound?
**A.** 150 % of control

**Q.** And the T/C [2]?
**A.** 121 % of control

**Q.** What about the T/C (dose: 200.0 mg/kg/injection, schedule: Q04DX003 (ip), vehicle: Klucel (hydroxypropylcellulose) (HPC)) of the same compound?
**A.** 124 % of control

**Q.** What about the T/C (dose: 266.0 mg/kg/injection, schedule: Q04DX003 (ip), vehicle: Klucel (hydroxypropylcellulose) (HPC)) of the same compound?
**A.** 162 % of control

**Q.** What about the T/C (dose: 266.0 mg/kg/injection, schedule: Q04DX003 (ip), vehicle: saline) of the same compound?
**A.** 116 % of control

**Q.** What about the T/C (dose: 400.0 mg/kg/injection, schedule: Q04DX003 (ip), vehicle: Klucel (hydroxypropylcellulose) (HPC)) of the same compound?
**A.** 157 % of control

**Q.** What about the T/C (dose: 400.0 mg/kg/injection, schedule: Q04DX003 (ip), vehicle: saline) of the same compound?
**A.** 114 % of control

**Q.** And the T/C (dose: 600.0 mg/kg/injection, schedule: Q01DX001 (ip), vehicle: Klucel (hydroxypropylcellulose) (HPC))?
**A.** 152 % of control

**Q.** And the T/C (dose: 600.0 mg/kg/injection, schedule: Q01DX001 (ip), vehicle: other)?
**A.** 156 % of control

**Q.** What about the T/C (dose: 600.0 mg/kg/injection, schedule: Q04DX003 (ip), vehicle: saline) of the same compound?
**A.** 112 % of control

**Q.** Which results are given for `CC(=O)Nc1ccc(CCCCc2c(C)nc(NC(C)=O)[nH]c2=O)cc1`?
**A.** T/C (dose: 100.0 mg/kg/injection, schedule: Q01DX001 (ip), vehicle: Klucel (hydroxypropylcellulose) (HPC)): 91 % of control; T/C (dose: 200.0 mg/kg/injection, schedule: Q01DX001 (ip), vehicle: Klucel (hydroxypropylcellulose) (HPC)): 89 % of control

**Q.** `C(CC1CCNCC1)CC1CCNCC1` was tested. Which T/C (dose: 10.0 mg/kg/injection, schedule: Q01DX Z (ip), vehicle: saline) did it give?
**A.** 96 % of control

**Q.** And the T/C (dose: 30.0 mg/kg/injection, schedule: Q01DX Z (ip), vehicle: saline)?
**A.** 96 % of control

**Q.** With `COc1ccc(C(=O)C(C)CN2CCCCC2)cc1` (configuration not stated) as the compound, how does the T/C (dose: 100.0 mg/kg/injection, schedule: Q01DX001 (ip), vehicle: saline) read?
**A.** 96 % of control

**Q.** And the T/C (dose: 200.0 mg/kg/injection, schedule: Q01DX001 (ip), vehicle: saline)?
**A.** 107 % of control

**Q.** For `O=C(CC(=Nc1ccccc1)c1ccccc1)c1ccccc1.O=C(CC(=Nc1ccccc1)c1ccccc1)c1ccccc1.[Cu]`, which T/C (dose: 50.0 mg/kg/injection, schedule: Q04DX003 (ip), vehicle: saline with Tween-80) is on record?
**A.** 89 % of control

**Q.** And the T/C [3]?
**A.** 90 % of control

**Q.** What does the source list for `ON=C1c2ccccc2-c2ccccc21`?
**A.** T/C (dose: 100.0 mg/kg/injection, schedule: Q04DX002 (ip), vehicle: Klucel (hydroxypropylcellulose) (HPC)): 96 % of control; T/C (dose: 200.0 mg/kg/injection, schedule: Q04DX002 (ip), vehicle: Klucel (hydroxypropylcellulose) (HPC)): 93 % of control; T/C (dose: 400.0 mg/kg/injection, schedule: Q04DX002 (ip), vehicle: Klucel (hydroxypropylcellulose) (HPC)): 104 % of control

**Q.** With `CCN1CCC(CNc2cc(C)nc(/N=C(\N)Nc3cc(Cl)cc(Cl)c3)n2)C1` (configuration not stated) as the compound, how does the T/C (dose: 12.5 mg/kg/injection, schedule: Q04DX003 (ip), vehicle: Klucel (hydroxypropylcellulose) (HPC)) read?
**A.** 102 % of control

**Q.** And the T/C (dose: 25.0 mg/kg/injection, schedule: Q04DX003 (ip), vehicle: Klucel (hydroxypropylcellulose) (HPC))?
**A.** 105 % of control

**Q.** What about the T/C (dose: 50.0 mg/kg/injection, schedule: Q04DX003 (ip), vehicle: Klucel (hydroxypropylcellulose) (HPC)) of the same compound?
**A.** 105 % of control

**Q.** How did the T/C (dose: 25.6 mg/kg/injection, schedule: Q04DX002 (ip), vehicle: saline with Tween-80) turn out when `CC(=O)Nc1c(C)cc(Cl)cc1Cl` was run?
**A.** 95 % of control

**Q.** What about the T/C (dose: 64.0 mg/kg/injection, schedule: Q04DX002 (ip), vehicle: saline with Tween-80) of the same compound?
**A.** 95 % of control

**Q.** What about the T/C (dose: 100.0 mg/kg/injection, schedule: Q01DX009 (ip), vehicle: saline with Tween-80) of the same compound?
**A.** 91 % of control

**Q.** What about the T/C [3] of the same compound?
**A.** 91 % of control

**Q.** And the T/C (dose: 160.0 mg/kg/injection, schedule: Q04DX002 (ip), vehicle: saline with Tween-80)?
**A.** 95 % of control

**Q.** And the T/C (dose: 200.0 mg/kg/injection, schedule: Q01DX009 (ip), vehicle: saline with Tween-80)?
**A.** 89 % of control

**Q.** What about the T/C (dose: 200.0 mg/kg/injection, schedule: Q04DX003 (ip), vehicle: saline with Tween-80) of the same compound?
**A.** 95 % of control

**Q.** And the T/C (dose: 400.0 mg/kg/injection, schedule: Q01DX009 (ip), vehicle: saline with Tween-80)?
**A.** 96 % of control

**Q.** And the T/C (dose: 400.0 mg/kg/injection, schedule: Q04DX002 (ip), vehicle: saline with Tween-80)?
**A.** 98 % of control

**Q.** And the T/C (dose: 400.0 mg/kg/injection, schedule: Q04DX003 (ip), vehicle: saline with Tween-80)?
**A.** 98 % of control

**Q.** `COc1ccc(C2(C=O)CN(C)CN2)cc1` (configuration not stated) was tested. Which T/C [1] did it give?
**A.** 96 % of control

**Q.** What about the T/C [2] of the same compound?
**A.** 107 % of control

**Q.** And the T/C (dose: 400.0 mg/kg/injection, schedule: Q01DX001 (ip), vehicle: other)?
**A.** 96 % of control

**Q.** Which T/C (dose: 75.0 mg/kg/injection, schedule: Q01DX001 (ip), vehicle: other) does the source give for `CC12CCCCCCC1O2` (configuration not stated) here?
**A.** 100 % of control

**Q.** And the T/C (dose: 150.0 mg/kg/injection, schedule: Q01DX001 (ip), vehicle: other)?
**A.** 89 % of control

**Q.** What about the T/C (dose: 300.0 mg/kg/injection, schedule: Q01DX001 (ip), vehicle: other) of the same compound?
**A.** 95 % of control

**Q.** `CC(C)=CCC/C(C)=C/Cn1c(=O)cc[nH]c1=O` was tested. Which T/C (dose: 100.0 mg/kg/injection, schedule: Q04DX003 (ip), vehicle: other) did it give?
**A.** 96 % of control

**Q.** And the T/C (dose: 200.0 mg/kg/injection, schedule: Q04DX003 (ip), vehicle: other)?
**A.** 86 % of control

**Q.** And the T/C (dose: 400.0 mg/kg/injection, schedule: Q04DX003 (ip), vehicle: other)?
**A.** 86 % of control
